PubChem BioAssay (NCI)
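48-hour exposure; five concentrations; linearly interpolated endpoints. TGI marks complete inhibition of growth.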

What was measured:
Experiment in all cases: NCI anticancer screen, dose series, 48 h
COLO 205 colon = tested on: COLO 205 colon
HL-60(TB) leukemia = tested on: HL-60(TB) leukemia
RPMI-8226 leukemia = tested on: RPMI-8226 leukemia
CCRF-CEM leukemia = tested on: CCRF-CEM leukemia
BT-549 breast = tested on: BT-549 breast
TK-10 renal = tested on: TK-10 renal
SW-620 colon = tested on: SW-620 colon
UACC-62 melanoma = tested on: UACC-62 melanoma
LOX IMVI melanoma = tested on: LOX IMVI melanoma
SK-MEL-28 melanoma = tested on: SK-MEL-28 melanoma
HCT-116 colon = tested on: HCT-116 colon
SNB-19 CNS = tested on: SNB-19 CNS
NCI-H226 lung = tested on: NCI-H226 lung
M14 melanoma = tested on: M14 melanoma
T-47D breast = tested on: T-47D breast
A549 NSCLC = tested on: A549 NSCLC
A498 renal = tested on: A498 renal
SNB-75 CNS = tested on: SNB-75 CNS
HOP-92 NSCLC = tested on: HOP-92 NSCLC
MCF7 breast = tested on: MCF7 breast
HS 578T breast = tested on: HS 578T breast
PC-3 prostate = tested on: PC-3 prostate
NCI-H460 lung = tested on: NCI-H460 lung
HCC-2998 colon = tested on: HCC-2998 colon
NCI-H23 lung = tested on: NCI-H23 lung
SK-MEL-5 melanoma = tested on: SK-MEL-5 melanoma
NCI/ADR-RES ovarian = tested on: NCI/ADR-RES ovarian
HCT-15 colon = tested on: HCT-15 colon
DU-145 prostate = tested on: DU-145 prostate
SF-295 CNS = tested on: SF-295 CNS
IGROV1 ovarian = tested on: IGROV1 ovarian
SN12C renal = tested on: SN12C renal
U251 CNS = tested on: U251 CNS
EKVX NSCLC = tested on: EKVX NSCLC
SF-268 CNS = tested on: SF-268 CNS
ACHN renal = tested on: ACHN renal
OVCAR-5 ovarian = tested on: OVCAR-5 ovarian
SK-OV-3 ovarian = tested on: SK-OV-3 ovarian
786-0 renal = tested on: 786-0 renal
MOLT-4 leukemia = tested on: MOLT-4 leukemia
OVCAR-8 ovarian = tested on: OVCAR-8 ovarian
RXF 393 renal = tested on: RXF 393 renal
OVCAR-4 ovarian = tested on: OVCAR-4 ovarian
HOP-62 NSCLC = tested on: HOP-62 NSCLC
SF-539 CNS = tested on: SF-539 CNS
UACC-257 melanoma = tested on: UACC-257 melanoma
CAKI-1 renal = tested on: CAKI-1 renal
SR leukemia = tested on: SR leukemia
KM12 colon = tested on: KM12 colon
OVCAR-3 ovarian = tested on: OVCAR-3 ovarian
MDA-MB-231 breast = tested on: MDA-MB-231 breast
SK-MEL-2 melanoma = tested on: SK-MEL-2 melanoma
MDA-MB-435 = tested on: MDA-MB-435
NCI-H522 lung = tested on: NCI-H522 lung
K-562 leukemia = tested on: K-562 leukemia
HT29 colon = tested on: HT29 colon

## C=C1C(=O)O[C@@H]2/C=C(/C)[C@@H](OC(C)=O)C/C=C(\C)C(O)[C@@H](OC(=O)/C(C)=C\C)C12 (stereo partly specified)
COLO 205 colon
  TGI: 32 µM
HL-60(TB) leukemia
  TGI: 49.6 µM
RPMI-8226 leukemia
  TGI: 60.7 µM
CCRF-CEM leukemia
  TGI: 57.2 µM
BT-549 breast
  TGI: 44.3 µM
TK-10 renal
  TGI: > 100 µM
SW-620 colon
  TGI: 30.1 µM
UACC-62 melanoma
  TGI: 88.4 µM
LOX IMVI melanoma
  TGI: 27.7 µM
SK-MEL-28 melanoma
  TGI: 32.1 µM
HCT-116 colon
  TGI: 29.8 µM
SNB-19 CNS
  TGI: > 100 µM
NCI-H226 lung
  TGI: > 100 µM
M14 melanoma
  TGI: > 100 µM
T-47D breast
  TGI: 39.7 µM
A549 NSCLC
  TGI: > 100 µM
A498 renal
  TGI: > 100 µM
SNB-75 CNS
  TGI: > 100 µM
HOP-92 NSCLC
  TGI: 50.3 µM
MCF7 breast
  TGI: > 100 µM
HS 578T breast
  TGI: > 100 µM
PC-3 prostate
  TGI: > 100 µM
NCI-H460 lung
  TGI: > 100 µM
HCC-2998 colon
  TGI: 55.4 µM
NCI-H23 lung
  TGI: > 100 µM
SK-MEL-5 melanoma
  TGI: 32.1 µM
NCI/ADR-RES ovarian
  TGI: 76.5 µM
HCT-15 colon
  TGI: 30.3 µM
DU-145 prostate
  TGI: > 100 µM
SF-295 CNS
  TGI: > 100 µM
IGROV1 ovarian
  TGI: > 100 µM
SN12C renal
  TGI: 43.1 µM
U251 CNS
  TGI: > 100 µM
EKVX NSCLC
  TGI: > 100 µM
SF-268 CNS
  TGI: > 100 µM
ACHN renal
  TGI: 40.8 µM
OVCAR-5 ovarian
  TGI: > 100 µM
SK-OV-3 ovarian
  TGI: > 100 µM
786-0 renal
  TGI: 29.7 µM
MOLT-4 leukemia
  TGI: 74.6 µM
OVCAR-8 ovarian
  TGI: 75.3 µM
RXF 393 renal
  TGI: 79.4 µM
OVCAR-4 ovarian
  TGI: > 100 µM
HOP-62 NSCLC
  TGI: > 100 µM
SF-539 CNS
  TGI: > 100 µM
UACC-257 melanoma
  TGI: > 100 µM
CAKI-1 renal
  TGI: 54.4 µM
SR leukemia
  TGI: 55.6 µM
KM12 colon
  TGI: > 100 µM
OVCAR-3 ovarian
  TGI: > 100 µM
MDA-MB-231 breast
  TGI: 39.2 µM
SK-MEL-2 melanoma
  TGI: 76.8 µM
MDA-MB-435
  TGI: 57.5 µM
NCI-H522 lung
  TGI: 32.3 µM
K-562 leukemia
  TGI: 73.3 µM
HT29 colon
  TGI: 40.1 µM
